{"source": "patent US9458161B1", "about": "“TSPO ligands for cancer imaging and treatment” (Vanderbilt University, priority 2011, dated 2016)", "key": {"[1]": {"molecular_target": "T1, TSPO (Homo sapiens, UniProt P30536)", "T1 sequence (P30536 whole entry)": "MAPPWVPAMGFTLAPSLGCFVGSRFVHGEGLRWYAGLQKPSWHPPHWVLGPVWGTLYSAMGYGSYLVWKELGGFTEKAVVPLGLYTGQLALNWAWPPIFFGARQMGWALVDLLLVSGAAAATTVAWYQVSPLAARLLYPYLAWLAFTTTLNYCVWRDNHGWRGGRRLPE", "conditions": "cited from earlier work"}, "[2]": {"molecular_target": "T1, TSPO", "design": "host or cells: glioma patients (Junck et al; Pappata et al.)", "conditions": "cited from earlier work"}, "[3]": {"assay": "HPLC radiometabolite analysis of plasma after [18F]DPA-714", "format": "in vivo, rat", "conditions": "mean ± SD", "method": "Briefly, arterial blood (200 μL) was collected at 2, 12, 30, 60, and 90 min. Following centrifugation, plasma was extracted with acetonitrile:water (340 μL, 7:1, v/v). The mixture was centrifuged and the supernatant used for reversed phase HPLC analysis using 0.1 M aqueous ammonium acetate (NH4)OAc (pH 10) and acetonitrile (30:70; v/v) at 1 mL/min on a C18 Dynamax 250×4.6 mm (Varian) column. Radiochromatographic data were recorded and collected using a radioisotope detector (Bioscan), decay-corrected to time zero of each radiochromatogram, and smoothed using a locally weighted scatter plot smoothing method. The plasma time-activity curve was corrected according to the fraction of unchanged radioligand."}, "[4]": {"molecular_target": "TSPO (Rattus norvegicus, UniProt P16257)", "conditions": "for K1/k2: 3-compartment, 4-parameter model; for K1/k2 / k3 / VT: mean ± S.E.; for K1/k2 / k3: N=3; for VT: N=4", "method": "In this Example Glioma-bearing rats were imaged with [^18F]PBR06 in a microPET system. Dynamic acquisitions were acquired simultaneously upon injection of 70-100 MBq/0.2 mL [^18F]PBR06. Over the course of scanning, arterial blood was collected to derive the input function, with HPLC radiometabolite analysis performed on selected samples for arterial input function correction. Compartmental modeling of the PET data was performed using the corrected arterial input function. Specific tumor cell binding of PBR06 was evaluated by radioligand displacement of [^3H]PK 11195 with PBR06 in vitro and by displacement of [^18F]PBR06 with excess PBR06 in vivo. Immediately following imaging, tumor tissue and adjacent healthy brain were harvested for assay of TSPO protein levels by western blotting and immunohistochemistry.\nPET/CT imaging was performed within 24 h of MR imaging in rats with confirmed tumors. Tumor-bearing rats were administered ˜70-100 MBq/0.2 mL [^18F]PBR06 via a jugular catheter while in a microPET Focus 220 (Siemens Preclinical Solutions, Knoxville, Tenn., USA). Dynamic images (90 min) were collected, followed by CT (microCAT II, Siemens Preclinical Solutions) for attenuation correction. For displacement studies, cold PBR06 (10 mg/kg) was injected via jugular catheter 30 min after radiotracer administration.\nThe dynamic PET acquisition was divided into twelve, five-second frames for the first minute, followed by 89 sixty-second frames for the duration of the scan. Data from all possible lines of response (LOR) were saved in the list mode raw data format. The raw data was then binned into 3D sinograms with a span of 3 and ring difference of 47. The images were reconstructed into transaxial slices (128×128×95) with voxel sizes of 0.095×0.095×0.08 cm^3, after applying scatter and attenuation corrections, using an iterative ordered subsets expectation maximization (OS-EM 2D) algorithm with 16 subsets and 4 iterations. Attenuation correction was accomplished by generating an attenuation map (sinogram) from the CT image. The CT image was first co-registered with the microPET image, segmented into air, soft tissue, and bone, and then projected into sinograms with a span of 47 and ring difference of 23.\nImmediately following administration of [^18F]PBR06, arterial blood samples (50 μL) were collected at 10 s intervals during the first minute of scanning, followed by collection at 90 s and 2, 8, 12, 20, 30, 45, 60, 75, and 90 min. Plasma radioactivity was measured by first centrifuging blood samples (50 μL) at 14,000 rpm for 5 min in a microcentrifuge. Next, plasma (15 μL) was removed and measured in a NaI well counter (Capintec, Ramsey, N.J., USA).\nTime-activity curves (TACs) were generated by manually segmenting three-dimensional volumes of interest over tumor and contralateral brain using ASIPro (Siemens Preclinical Solutions), avoiding areas of central necrosis if present. The arterial input function (AIF) was computed from plasma sampling during imaging and corrected for metabolism of the parent ligand. A 3-compartment, 4-rate constant kinetic model was used to characterize [^18F]PBR06 pharmacokinetics as previously described. Using the COMKAT software package, model parameters were estimated for constants for influx (K1) and efflux (k2) rates of radioligand diffusion between plasma and tissue compartments, and exchange between specific (k3) and non-specific binding (k4) compartments. Modeling was carried out for whole brain (excluding tumor) and tumor, individually, by fitting TACs of each region.\nTo evaluate the in vivo TSPO specificity of [^18F]PBR06, we carried out displacement studies in C6-bearing rats using the cold analog, PBR06."}, "[5]": {"assay": "HPLC radiometabolite analysis of plasma after [18F]PBR06", "format": "in vivo, rat", "method": "Blood samples (200 μL) were collected (2, 25, 45 min) for radiometabolite analysis. Following centrifugation, plasma was extracted with acetonitrile:water (340 μL, 7.5:1, v/v). The mixture was centrifuged and the supernatant used for HPLC analysis. Radioanalysis was conducted as is known in the art. Radiochromatographic data were recorded and collected using a radioisotope detector (Bioscan, Washington, D.C., USA), decay-corrected to time zero of each radiochromatogram, and smoothed using a locally weighted scatter plot smoothing (LOWESS) method. The plasma time-activity curve (TAC) was corrected with the fraction of unchanged radioligand.\nArterial blood samples were collected to assay [^18F]PBR06 radiometabolites for correction of the AIF. FIG. 12 illustrates a typical activity corrected reversed-phase HPLC trace of a blood sample collected two minutes following injection of [^18F]PBR06. At this time point we noted the presence of both ^18F^− (retention time 2.8 min) and the parent ligand (10.1 min) in a respective ratio of ˜1:3."}, "[6]": {"conditions": "at 45 minutes, after infusion of PBR06 at 30 minutes"}}, "note": "Read-outs that look alike come from different tables or passages of the source."}
{"smiles": "CCC(C)N(C)C(=O)c1cc2ccccc2c(-c2ccccc2Cl)n1", "note": "(stereo not shown) [PK 11195]", "values": [{"measurement": "in vitro affinity (in words)", "setting": "[1]", "result": "in vitro affinity in the low nanomolar range"}]}
{"smiles": "CN1C(=O)CN=C(c2ccc(Cl)cc2)c2cc(Cl)ccc21", "note": "[Ro5-4864]", "values": [{"measurement": "in vitro affinity (in words)", "setting": "[1]", "result": "in vitro affinity in the low nanomolar range"}]}
{"smiles": "CC[C@@H](C)N([11CH3])C(=O)c1cc2ccccc2c(-c2ccccc2Cl)n1", "note": "[[^11C]PK 11195]", "values": [{"measurement": "displaceable fraction of tracer with nonradioactive ligand", "setting": "[2]; glioma patient (Pappata et al.)", "result": "less than 30%"}, {"measurement": "patients with significantly elevated uptake in gliomas vs contralateral normal brain", "setting": "[2]; human gliomas (Junck et al.)", "result": "8/10"}, {"measurement": "tumor/gray matter ratio", "setting": "[2]; human gliomas, in 3/10 patients (Junck et al.)", "result": "~2"}]}
{"smiles": "[11CH3]N1C(=O)CN=C(c2ccc(Cl)cc2)c2cc(Cl)ccc21", "note": "[[^11C]Ro5-4864]", "values": [{"measurement": "radioactivity in tumor tissue vs normal brain (in words)", "setting": "[2]; human gliomas, PET (Junck et al.)", "result": "failed to demonstrate higher levels of radioactivity in tumor tissue than in normal brain"}]}
{"smiles": "CCN(CC)C(=O)Cc1c(-c2ccc(OCC[18F])cc2)nn2c(C)cc(C)nc12", "note": "[[^18F]DPA-714]", "values": [{"measurement": "% 18F- in plasma", "setting": "[3]; P.I. time 2 (N=7)", "result": "2 ± 3.3", "unit": "%"}, {"measurement": "% Metabolite (hydrophilic radiometabolite) in plasma", "setting": "[3]; P.I. time 2 (N=7)", "result": "3 ± 3.7", "unit": "%"}, {"measurement": "% 18F- in plasma", "setting": "[3]; P.I. time 12 (N=7)", "result": "13 ± 6.7", "unit": "%"}, {"measurement": "% Metabolite (hydrophilic radiometabolite) in plasma", "setting": "[3]; P.I. time 12 (N=7)", "result": "19 ± 5.8", "unit": "%"}, {"measurement": "% [18F]DPA-714 (parent) in plasma", "setting": "[3]; P.I. time 12 (N=7)", "result": "68 ± 7.4", "unit": "%"}, {"measurement": "% 18F- in plasma", "setting": "[3]; P.I. time 30 (N=7)", "result": "37 ± 5.4", "unit": "%"}, {"measurement": "% Metabolite (hydrophilic radiometabolite) in plasma", "setting": "[3]; P.I. time 30 (N=7)", "result": "19 ± 8.8", "unit": "%"}, {"measurement": "% [18F]DPA-714 (parent) in plasma", "setting": "[3]; P.I. time 30 (N=7)", "result": "44 ± 8.9", "unit": "%"}, {"measurement": "% 18F- in plasma", "setting": "[3]; P.I. time 60 (N=7)", "result": "50 ± 15.0", "unit": "%"}, {"measurement": "% Metabolite (hydrophilic radiometabolite) in plasma", "setting": "[3]; P.I. time 60 (N=7)", "result": "23 ± 7.3", "unit": "%"}, {"measurement": "% [18F]DPA-714 (parent) in plasma", "setting": "[3]; P.I. time 60 (N=7)", "result": "27 ± 6.2", "unit": "%"}, {"measurement": "% 18F- in plasma", "setting": "[3]; P.I. time 90 (N=5)", "result": "64 ± 12.1", "unit": "%"}, {"measurement": "% Metabolite (hydrophilic radiometabolite) in plasma", "setting": "[3]; P.I. time 90 (N=5)", "result": "14 ± 3.8", "unit": "%"}, {"measurement": "% [18F]DPA-714 (parent) in plasma", "setting": "[3]; P.I. time 90 (N=5)", "result": "22 ± 17.8", "unit": "%"}]}
{"smiles": "COc1ccc(OC)c(CN(C(=O)C[18F])c2ccccc2Oc2ccccc2)c1", "note": "[[^18F]PBR06]", "values": [{"measurement": "tracer distribution tumor vs contralateral brain (in words)", "setting": "[4]; C6 glioma-bearing rats", "result": "preferentially accumulate in tumors with modest uptake in contralateral brain"}, {"measurement": "tumor activity after PBR06 infusion, % of maximum/peak tumor uptake", "setting": "[4]; PBR06 10 mg/kg i.v. 30 min after tracer", "result": "approximately 25%"}, {"measurement": "K1/k2", "setting": "[4]; brain", "result": "6.164 ± 2.049", "unit": "mL/g"}, {"measurement": "k3", "setting": "[4]; brain", "result": "0.0714 ± 0.0261", "unit": "min⁻¹"}, {"measurement": "VT", "setting": "[4]; brain", "result": "13.07 ± 3.901", "unit": "mL/g"}, {"measurement": "k4", "setting": "[4]; brain, mean, N=3 (S.E. in next line)", "result": 0.00945, "unit": "min⁻¹"}, {"measurement": "displaceable [18F]PBR06 binding", "setting": "[4]; infusion of PBR06 10 mg/kg 30 min after tracer, tumor", "result": "approximately 75%"}, {"measurement": "total radioactivity in tumor relative to normal brain", "setting": "[4]; last 20 minutes of the PET scan", "result": "approximately three- to four-fold higher than normal brain"}, {"measurement": "K1/k2", "setting": "[4]; tumor", "result": "5.947 ± 1.982", "unit": "mL/g"}, {"measurement": "k3", "setting": "[4]; tumor", "result": "0.3870 ± 0.1592", "unit": "min⁻¹"}, {"measurement": "VT", "setting": "[4]; tumor", "result": "63.90 ± 3.400", "unit": "mL/g"}, {"measurement": "free 18F− in plasma", "setting": "[5]; at 2 minutes after injection", "result": 25, "unit": "%"}, {"measurement": "parent ligand [18F]PBR06 in plasma", "setting": "[5]; at 2 minutes after injection", "result": 75, "unit": "%"}, {"measurement": "free 18F− in plasma", "setting": "[5]; at 30 minutes", "result": 62, "unit": "%"}, {"measurement": "parent ligand [18F]PBR06 in plasma", "setting": "[5]; at 30 minutes", "result": 38, "unit": "%"}, {"measurement": "18F− in plasma", "setting": "[5]; [6]", "result": 43, "unit": "%"}, {"measurement": "fraction of [18F]PBR06 in plasma", "setting": "[5]; [6]", "result": 57, "unit": "%"}]}
